Columns and labels:
Assay type in all cases: in vivo
[1] = system: green foxtail (Setaria viridis, SETVI); test: Post-emerge test, greenhouse herbicide activity screening; settings: rating scale 0-100 (0 no damage, 100 complete death), 14 days after application
How it was run: (§1)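 Applied at 15–1000 g ai/ha from acetone in 187 l/ha spray volume. Post-emergence applications included 0.25% v/v non-ionic surfactant and reached plants sown 8–21 days before. Pre-emergence applications were incorporated by surface watering. Efficacy or crop damage was rated on a 0–100 scale after 14 days.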

[2] = system: ivyleaf morningglory (Ipomoea hederacea, IPOHE); test: as above; settings: rating scale 0-100 (0 no damage, 100 complete death), 14 days after application
How it was run: as §1

[3] = system: barnyardgrass (Echinochloa crus-galli, ECHCG); test: as above; settings: rating scale 0-100 (0 no damage, 100 complete death), 14 days after application
How it was run: as §1

[4] = system: velvetleaf (Abutilon theophrasti, ABUTH); test: as above; settings: rating scale 0-100 (0 no damage, 100 complete death), 14 days after application
How it was run: as §1

[5] = system: redroot pigweed (Amaranthus retroflexus, AMARE); test: as above; settings: rating scale 0-100 (0 no damage, 100 complete death), 14 days after application
How it was run: as §1

[6] = system: lambsquarters (Chenopodium album, CHEAL); test: as above; settings: rating scale 0-100 (0 no damage, 100 complete death), 14 days after application
How it was run: as §1

[7] = system: sicklepod (Cassia obtusifolia, CASOB); test: as above; settings: rating scale 0-100 (0 no damage, 100 complete death), 14 days after application
How it was run: as §1

[8] = system: johnsongrass (Sorghum halepense, SORHA); test: as above; settings: rating scale 0-100 (0 no damage, 100 complete death), 14 days after application
How it was run: as §1

[9] = system: large crabgrass (Digitaria sanguinalis, DIGSA); test: as above; settings: rating scale 0-100 (0 no damage, 100 complete death), 14 days after application
How it was run: as §1

[10] = system: common ragweed (Ambrosia artemisizfolia L., AMBEL); test: as above; settings: rating scale 0-100 (0 no damage, 100 complete death), 14 days after application
How it was run: as §1

[11] = system: field corn (Zea mays L., var. Dekalb 535, CORN); test: Pre-emerge test, crop safety; settings: rating scale 0-100, 14 days after application
How it was run: (§2)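 Visual ratings on a 0-100 scale (0 no damage, 100 all plants dead) were taken at 14 days after treatment. Rates of 15-1000 g ai/ha in acetone, 187 l/ha, were sprayed onto soil one day after planting (pre-emerge) or onto 2-3 leaf plants with 0.25% v/v surfactant (post-emerge).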

[12] = system: upland rice (Oryza sp., var. Tebonnet, RICE); test: Pre-emerge test, crop safety; settings: rating scale 0-100, 14 days after application
How it was run: as §2

[13] = system: green foxtail (Setaria viridis, SETVI); test: Pre-emerge test, greenhouse herbicide activity screening; settings: rating scale 0-100, 14 days after application
How it was run: (§3)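 Herbicidal damage is scored 0 (none) to 100 (complete plant death) two weeks after a simulated field spray. Rates span 15–1000 g ai/ha, delivered in acetone at 187 l/ha. For post-emergence treatments, plants have 2–3 leaves and the spray carries 0.25% v/v non-ionic surfactant.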

[14] = system: ivyleaf morningglory (Ipomoea hederacea, IPOHE); test: as above; settings: rating scale 0-100, 14 days after application
How it was run: as §3

[15] = system: barnyardgrass (Echinochloa crus-galli, ECHCG); test: as above; settings: rating scale 0-100, 14 days after application
How it was run: as §3

[16] = system: velvetleaf (Abutilon theophrasti, ABUTH); test: as above; settings: rating scale 0-100, 14 days after application
How it was run: as §3

[17] = system: lambsquarters (Chenopodium album, CHEAL); test: as above; settings: rating scale 0-100, 14 days after application
How it was run: as §3

[18] = system: sicklepod (Cassia obtusifolia, CASOB); test: as above; settings: rating scale 0-100, 14 days after application
How it was run: as §3

[19] = system: johnsongrass (Sorghum halepense, SORHA); test: as above; settings: rating scale 0-100, 14 days after application
How it was run: as §3

[20] = system: large crabgrass (Digitaria sanguinalis, DIGSA); test: as above; settings: rating scale 0-100, 14 days after application
How it was run: as §3

[21] = system: redroot pigweed (Amaranthus retroflexus, AMARE); test: as above; settings: rating scale 0-100, 14 days after application
How it was run: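 Sandy loam pots; pre-emerge: sown 1 d pre-spray, surface-watered after, then bottom-watered. Post-emerge: sown 8–21 d before, 2–3 leaf stage, + 0.25% v/v NIS, bottom-watered. Acetone, 187 l/ha track spray, 15–1000 g ai/ha. 0–100 injury score, day 14.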

[22] = system: field corn (Zea mays L., var. Dekalb 535, CORN); test: Post-emerge test, crop safety; settings: rating scale 0-100 (0 no damage, 100 complete death), 14 days after application
How it was run: as §3

[23] = system: upland rice (Oryza sp., var. Tebonnet, RICE); test: Post-emerge test, crop safety; settings: rating scale 0-100 (0 no damage, 100 complete death), 14 days after application
How it was run: as §3

Compound: COc1c(Cl)cc(F)c(-n2c(=O)cc(C(F)(F)F)n(C)c2=O)c1CC(Cl)C(=O)OCCC#N (stereo not shown) [14-29]
- Post-emerge Herbicidal Activity, phytotoxicity rating SETVI ([1]; Rate 63 g ai/ha): 20
- Post-emerge Herbicidal Activity, phytotoxicity rating SETVI ([1]; Rate 250 g ai/ha): 70
- Post-emerge Herbicidal Activity, phytotoxicity rating IPOHE ([2]; Rate 63 g ai/ha): 80
- Post-emerge Herbicidal Activity, phytotoxicity rating IPOHE ([2]; Rate 250 g ai/ha): 80
- Post-emerge Herbicidal Activity, phytotoxicity rating ECHCG ([3]; Rate 63 g ai/ha): 100
- Post-emerge Herbicidal Activity, phytotoxicity rating ECHCG ([3]; Rate 250 g ai/ha): 100
- Post-emerge Herbicidal Activity, phytotoxicity rating ABUTH ([4]; Rate 63 g ai/ha): 50
- Post-emerge Herbicidal Activity, phytotoxicity rating ABUTH ([4]; Rate 250 g ai/ha): 100
- Post-emerge Herbicidal Activity, phytotoxicity rating AMARE ([5]; Rate 63 g ai/ha): 90
- Post-emerge Herbicidal Activity, phytotoxicity rating AMARE ([5]; Rate 250 g ai/ha): 100
- Post-emerge Herbicidal Activity, phytotoxicity rating CHEAL ([6]; Rate 63 g ai/ha): 30
- Post-emerge Herbicidal Activity, phytotoxicity rating CHEAL ([6]; Rate 250 g ai/ha): 60
- Post-emerge Herbicidal Activity, phytotoxicity rating CASOB ([7]; Rate 63 g ai/ha): 0
- Post-emerge Herbicidal Activity, phytotoxicity rating CASOB ([7]; Rate 250 g ai/ha): 40
- Post-emerge Herbicidal Activity, phytotoxicity rating SORHA ([8]; Rate 63 g ai/ha): 50
- Post-emerge Herbicidal Activity, phytotoxicity rating SORHA ([8]; Rate 250 g ai/ha): 70
- Post-emerge Herbicidal Activity, phytotoxicity rating DIGSA ([9]; Rate 63 g ai/ha): 70
- Post-emerge Herbicidal Activity, phytotoxicity rating DIGSA ([9]; Rate 250 g ai/ha): 95
- Post-emerge Herbicidal Activity, phytotoxicity rating AMBEL ([10]; Rate 63 g ai/ha): 100
- Post-emerge Herbicidal Activity, phytotoxicity rating AMBEL ([10]; Rate 250 g ai/ha): 100
- Pre-emerge phytotoxicity rating, crop damage CORN ([11]; 63 g ai/ha): 0
- Pre-emerge phytotoxicity rating, crop damage CORN ([11]; 250 g ai/ha): 10
- Pre-emerge phytotoxicity rating, crop damage RICE ([12]; 63 g ai/ha): 0
- Pre-emerge phytotoxicity rating, crop damage RICE ([12]; 250 g ai/ha): 20
- Pre-emerge herbicidal activity, phytotoxicity rating SETVI ([13]; 63 g ai/ha): 0
- Pre-emerge herbicidal activity, phytotoxicity rating SETVI ([13]; 250 g ai/ha): 0
- Pre-emerge herbicidal activity, phytotoxicity rating IPOHE ([14]; 63 g ai/ha): 0
- Pre-emerge herbicidal activity, phytotoxicity rating IPOHE ([14]; 250 g ai/ha): 0
- Pre-emerge herbicidal activity, phytotoxicity rating ECHCG ([15]; 63 g ai/ha): 0
- Pre-emerge herbicidal activity, phytotoxicity rating ECHCG ([15]; 250 g ai/ha): 0
- Pre-emerge herbicidal activity, phytotoxicity rating ABUTH ([16]; 63 g ai/ha): 0
- Pre-emerge herbicidal activity, phytotoxicity rating ABUTH ([16]; 250 g ai/ha): 80
- Pre-emerge herbicidal activity, phytotoxicity rating CHEAL ([17]; 63 g ai/ha): 0
- Pre-emerge herbicidal activity, phytotoxicity rating CHEAL ([17]; 250 g ai/ha): 50
- Pre-emerge herbicidal activity, phytotoxicity rating CASOB ([18]; 63 g ai/ha): 0
- Pre-emerge herbicidal activity, phytotoxicity rating CASOB ([18]; 250 g ai/ha): 0
- Pre-emerge herbicidal activity, phytotoxicity rating SORHA ([19]; 63 g ai/ha): 0
- Pre-emerge herbicidal activity, phytotoxicity rating SORHA ([19]; 250 g ai/ha): 0
- Pre-emerge herbicidal activity, phytotoxicity rating DIGSA ([20]; 63 g ai/ha): 0
- Pre-emerge herbicidal activity, phytotoxicity rating DIGSA ([20]; 250 g ai/ha): 50
- Pre-emerge herbicidal activity, phytotoxicity rating AMARE ([21]; 63 g ai/ha): 20
- Pre-emerge herbicidal activity, phytotoxicity rating AMARE ([21]; 250 g ai/ha): 95
- Post-emerge phytotoxicity rating CORN (crop damage) ([22]; Rate 63 g ai/ha): 15
- Post-emerge phytotoxicity rating CORN (crop damage) ([22]; Rate 250 g ai/ha): 50
- Post-emerge phytotoxicity rating RICE (crop damage) ([23]; Rate 63 g ai/ha): 0
- Post-emerge phytotoxicity rating RICE (crop damage) ([23]; Rate 250 g ai/ha): 10

From patent US6355799B1, “Substituted benzene compounds, process for their preparation, and herbicidal and defoliant compositions containing them” (ISK Americas Incorporated, priority 1997, dated 2002)
